Patent US20240300948A1, “Heterocyclic Compounds As Kinase Inhibitors” (Incyte Corporation, priority 2023, published 2024)

Experiments:
[1] = target: T1, pseudo-kinase domain (JH2, amino-acids 536-812 with 3 surface mutations W659A, W777A, F794H) of human Wild Type JAK2 (Homo sapiens, UniProt O60674, F794H/W659A/W777A); test: JAK2 LanthaScreen JH2-WT binding assay; conditions: 50 nM tracer, 1 hour at 25° C., read-out: JH2 BIND WT IC50
T1 construct: pseudo-kinase domain (JH2, amino-acids 536-812 with 3 surface mutations W659A, W777A, F794H); His (C); Avi (biotinylated) (C); purchased BPS Bioscience 79463; host or cells: baculovirus expression system
T1 sequence (O60674 536-812 W659A/W777A/F794H): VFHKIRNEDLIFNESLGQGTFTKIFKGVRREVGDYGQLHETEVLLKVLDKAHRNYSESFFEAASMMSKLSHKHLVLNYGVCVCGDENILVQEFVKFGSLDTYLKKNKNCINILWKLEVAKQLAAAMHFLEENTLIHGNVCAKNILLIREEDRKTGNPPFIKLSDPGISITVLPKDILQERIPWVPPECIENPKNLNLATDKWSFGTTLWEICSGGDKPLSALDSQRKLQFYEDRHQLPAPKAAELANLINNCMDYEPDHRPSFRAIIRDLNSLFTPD
Experimental: Example B. JAK2 LanthaScreen JH2-WT Binding Assay
(§1) JAK2 JH2-WT binding assay utilizes pseudo-kinase domain (JH2, amino-acids 536-812 with 3 surface mutations W659A, W777A, F794H) of human Wild Type JAK2 expressed as C-terminal His-Avi-tagged, biotinylated protein in a baculovirus expression system (BPS Bioscience, Catalog #79463). The assay was conducted in black 384-well polystyrene plates in a final reaction volume of 20 μL. JAK2 JH2-WT (0.145 nM) was incubated with compounds (100 nL serially diluted in DMSO) in the presence of 50 nM Fluorescent JAK2-JH2 Tracer (MedChem Express Catalog #HY-102055) and 0.25 nM Streptavidin-Tb cryptate (Cisbio Part #610SATLB) in assay buffer (50 mM Tris, pH=7.5, 10 mM MgCl2, 0.01% Brij-35, 0.1% BSA, 1 mM EGTA, 5% Glycerol and 5 mM DTT). Non-specific binding was accessed in the presence of 2 mM ATP. After incubation for 1 hour at 25° C., LanthaScreen signals were read on a PHERAstar FS plate reader (BMG LABTECH). Data was analyzed with IDBS XLfit and GraphPad Prism 5.0 software using a four parameter dose response curve to determine IC50 for each compound.

[2] = target: T2, catalytic domain (JH1, amino acids 826-1132) of human JAK2 (Homo sapiens, UniProt O60674); test: JAK2 LanthaScreen JH1 binding assay; conditions: 50 nM tracer, 2 hours at 25° C., read-out: JH1 BIND IC50
T2 construct: catalytic domain (JH1, amino acids 826-1132) of human JAK2; FLAG (N); purchased Carna Biosciences 08-445-20N; host or cells: baculovirus expression system
T2 sequence (O60674 826-1132): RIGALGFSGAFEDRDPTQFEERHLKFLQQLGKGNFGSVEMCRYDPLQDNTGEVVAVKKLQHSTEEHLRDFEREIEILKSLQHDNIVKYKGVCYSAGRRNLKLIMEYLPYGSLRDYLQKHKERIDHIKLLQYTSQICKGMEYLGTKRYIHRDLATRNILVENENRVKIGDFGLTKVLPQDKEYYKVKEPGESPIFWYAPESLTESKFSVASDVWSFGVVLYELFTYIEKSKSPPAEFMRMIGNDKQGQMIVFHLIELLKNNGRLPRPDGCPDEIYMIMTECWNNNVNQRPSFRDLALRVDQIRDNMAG
Experimental: Example A. JAK2 LanthaScreen […] Binding Assay
JAK2 JH1 binding assay utilizes catalytic domain (JH1, amino acids 826-1132) of human JAK2 expressed as N-terminal FLAG-tagged, biotinylated protein in a baculovirus expression system (Carna Biosciences, Product #08-445-20N). The assay was conducted in black 384-well polystyrene plates in a final reaction volume of 20 μL. JAK2 JH1 (1.5 nM) was incubated with compounds (100 nL serially diluted in DMSO) in the presence of 50 nM fluorescent JAK2-JH1 tracer and 0.5 nM Streptavidin-Tb cryptate (Cisbio Part #610SATLB) in assay buffer (50 mM Tris, pH=7.5, 10 mM MgCl2, 0.01% Brij-35, 0.1% BSA, 1 mM EGTA, 5% Glycerol and 5 mM DTT). Non-specific binding was accessed in the presence of 2 mM ATP. After incubation for 2 hours at 25° C., LanthaScreen signals were read on a PHERAstar FS plate reader (BMG LABTECH). Data was analyzed with IDBS XLfit and GraphPad Prism 5.0 software using a four parameter dose response curve to determine IC50 for each compound.

[3] = target: T3, pseudo-kinase domain (JH2, amino-acids 536-812 with 3 surface mutations W659A, W777A, F794H) of human V617F mutant JAK2 (Homo sapiens, UniProt O60674, F794H/V617F/W659A/W777A); test: JAK2 LanthaScreen JH2-V617F binding assay; conditions: 50 nM tracer, 1 hour at 25° C., read-out: JH2 BIND V617F IC50
T3 construct: pseudo-kinase domain (JH2, amino-acids 536-812 with 3 surface mutations W659A, W777A, F794H); His (C); Avi (biotinylated) (C); purchased BPS Bioscience 79498; host or cells: baculovirus expression system
T3 sequence (O60674 536-812 V617F/W659A/W777A/F794H): as the sequence (O60674 536-812 W659A/W777A/F794H) above, with V82F counted along it
Experimental: Example C. JAK2 LanthaScreen JH2-V617F Binding Assay
as §1, with “JH2-V617F” for “JH2-WT”, “V617F mutant” for “Wild Type”, “#79498).” for “#79463).”, “JH2-V617F (0.26” for “JH2-WT (0.145”

SMILES | IC50 [1] | IC50 [2] | IC50 [3]
CC(C)n1ncc2cc(-c3c(-c4cnn(C)c4)[nH]c4ncc5c(c34)N([C@@H]3CC[C@@H](NS(C)(=O)=O)C3)C(=O)NC5)ccc21 [Example 10, N-((1R,3R)-3-(9-(1-Isopropyl-1H-indazol-5-yl)-8-(1-methyl-1H-pyrazol-4-yl)-2-oxo-2,3,4,7-tetrahydro-1H-pyrrolo[3′,2′:5,6]pyrido[4,3-d]pyrimidin-1-yl)cyclopentyl) methanesulfonamide] | 0.01 to 0.1 µM | > 1 µM | 0.1 to 0.5 µM
CC(C)n1ncc2cc(-c3c(-c4cnn(C)c4)[nH]c4ncc5c(c34)N(C3CCN(C(=O)NCC(F)F)CC3)C(=O)NC5)ccc21 [Example 17, N-(2,2-Difluoroethyl)-4-(9-(1-isopropyl-1H-indazol-5-yl)-8-(1-methyl-1H-pyrazol-4-yl)-2-oxo-2,3,4,7-tetrahydro-1H-pyrrolo[3′,2′:5,6]pyrido[4,3-d]pyrimidin-1-yl)piperidine-1-carboxamide] | 0.01 to 0.1 µM | > 1 µM | 0.01 to 0.1 µM
CC(C)n1ncc2cc(-c3c(-c4cnn(C)c4)[nH]c4ncc5c(c34)N(C3CCN(S(C)(=O)=O)CC3)C(=O)NC5)ccc21 [Example 16, 9-(1-Isopropyl-1H-indazol-5-yl)-8-(1-methyl-1H-pyrazol-4-yl)-1-(1-(methylsulfonyl)piperidin-4-yl)-1,3,4,7-tetrahydro-2H-pyrrolo [3′,2′:5,6]pyrido[4,3-d]pyrimidin-2-one] | 0.01 to 0.1 µM | > 1 µM | 0.01 to 0.1 µM
COC(=O)N[C@@H]1CC[C@@H](N2C(=O)NCc3cnc4[nH]c(-c5cnn(C)c5)c(-c5ccc6c(cnn6CCF)c5)c4c32)C1 [Example 25, Methyl ((1R,3R)-3-(9-(1-(2-fluoroethyl)-1H-indazol-5-yl)-8-(1-methyl-1H-pyrazol-4-yl)-2-oxo-2,3,4,7-tetrahydro-1H-pyrrolo[3′,2′:5,6]pyrido [4,3-d]pyrimidin-1-yl)cyclopentyl) carbamate] | ≤ 0.01 µM | 0.1 to 0.5 µM | 0.01 to 0.1 µM
CNc1nc(=O)n([C@@H]2CC[C@@H](NC(=O)OC)C2)c2c1cnc1[nH]c(-c3cnn(C)c3)c(-c3ccc4c(cnn4C(C)C)c3)c12 [Example 42, Methyl ((1R,3R)-3-(9-(1-isopropyl-1H-indazol-5-yl)-8-(1-methyl-1H-pyrazol-4-yl)-4-(methylamino)-2-oxo-2,7-dihydro-1H-pyrrolo[3′,2′:5,6]pyrido[4,3-d]pyrimidin-1-yl)cyclopentyl)carbamate] | 0.01 to 0.1 µM | > 1 µM | 0.01 to 0.1 µM
COC(=O)N[C@@H]1CC[C@@H](N2C(=O)NCc3cnc4[nH]c(-c5cnn(C)c5)c(-c5ccc6c(cnn6C6CCC6)c5)c4c32)C1 [Example 24, Methyl ((1R,3R)-3-(9-(1-cyclobutyl-1H-indazol-5-yl)-8-(1-methyl-1H-pyrazol-4-yl)-2-oxo-2,3,4,7-tetrahydro-1H-pyrrolo[3′,2′:5,6]pyrido[4,3-d]pyrimidin-1-yl)cyclopentyl) carbamate] | 0.01 to 0.1 µM | 0.1 to 0.5 µM | 0.01 to 0.1 µM
COC(=O)N[C@H]1C[C@H](N2C(=O)NCc3cnc4[nH]c(-c5cc(C)nc(C)c5)c(-c5ccc6c(cnn6C(C)C)c5)c4c32)C1 [Example 35, Methyl ((1r,3r)-3-(8-(2,6-dimethylpyridin-4-yl)-9-(1-isopropyl-1H-indazol-5-yl)-2-oxo-2,3,4,7-tetrahydro-1H-pyrrolo[3′,2′:5,6]pyrido[4,3-d]pyrimidin-1-yl)cyclobutyl) carbamate] | 0.01 to 0.1 µM | > 1 µM | 0.01 to 0.1 µM
CC(C)n1ncc2cc(-c3c(-c4cnn(C)c4)[nH]c4ncc5c(c34)N(C3CCC4(CC3)CN(S(=O)(=O)C3(C)CC3)C4)C(=O)NC5)ccc21 [Example 20, 9-(1-isopropyl-1H-indazol-5-yl)-8-(1-methyl-1H-pyrazol-4-yl)-1-(2-((1-methylcyclopropyl)sulfonyl)-2-azaspiro[3.5]nonan-7-yl)-1,3,4,7-tetrahydro-2H-pyrrolo [3′,2′:5,6]pyrido[4,3-d]pyrimidin-2-one] | 0.01 to 0.1 µM | > 1 µM | 0.01 to 0.1 µM
